According to article PMC4634939 (Journal of medicinal chemistry, 2015):

Assays:
[1] = target: T1, TLR4 (Mus musculus, UniProt Q9JHF9+Q9QUK6)
T1 sequence (Q9QUK6 26-835): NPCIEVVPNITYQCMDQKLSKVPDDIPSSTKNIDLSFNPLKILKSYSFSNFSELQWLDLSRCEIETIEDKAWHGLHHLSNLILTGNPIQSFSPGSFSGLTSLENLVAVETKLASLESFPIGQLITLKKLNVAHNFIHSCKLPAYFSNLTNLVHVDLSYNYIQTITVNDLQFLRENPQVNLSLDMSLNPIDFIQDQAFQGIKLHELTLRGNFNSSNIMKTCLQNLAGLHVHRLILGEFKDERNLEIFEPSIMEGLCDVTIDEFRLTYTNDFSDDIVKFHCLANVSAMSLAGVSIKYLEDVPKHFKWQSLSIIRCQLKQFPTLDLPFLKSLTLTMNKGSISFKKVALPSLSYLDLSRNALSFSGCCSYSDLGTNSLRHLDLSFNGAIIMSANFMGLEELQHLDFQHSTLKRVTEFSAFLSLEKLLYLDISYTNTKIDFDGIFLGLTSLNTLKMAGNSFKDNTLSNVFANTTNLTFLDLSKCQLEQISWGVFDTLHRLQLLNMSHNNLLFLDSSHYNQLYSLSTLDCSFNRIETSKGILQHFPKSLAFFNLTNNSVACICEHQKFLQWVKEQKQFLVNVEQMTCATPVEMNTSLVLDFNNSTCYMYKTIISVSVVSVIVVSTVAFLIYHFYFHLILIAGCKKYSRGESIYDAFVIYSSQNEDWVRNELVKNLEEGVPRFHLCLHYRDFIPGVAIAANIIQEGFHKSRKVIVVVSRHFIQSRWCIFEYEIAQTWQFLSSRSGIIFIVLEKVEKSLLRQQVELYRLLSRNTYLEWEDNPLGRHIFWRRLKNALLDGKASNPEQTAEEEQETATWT
T1 sequence (Q9JHF9 19-160): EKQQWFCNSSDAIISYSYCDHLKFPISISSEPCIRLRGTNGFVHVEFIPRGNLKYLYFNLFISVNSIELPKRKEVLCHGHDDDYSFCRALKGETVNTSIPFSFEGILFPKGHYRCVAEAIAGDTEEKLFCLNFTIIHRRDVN

[2] = Hargreaves test for analgesia; details: rat, intrathecal morphine 15 μg plus vehicle, P < 0.05

For `O=C1CC[C@]2(O)[C@@H]3Cc4ccc(O)c5c4[C@]2(CCN3CCc2ccccc2)[C@@H]1O5` [1j, (4S,4aR,7aS,12bR)-4a,9-Dihydroxy-3-phenethyl-2,3,4,4a,5,6-hexahydro-1H-4,12-methanobenzofuro[3,2-e]isoquinolin-7(7aH)-one], the “ratio of cell viability IC50 (cytotoxicity) to TLR4 antagonist activity” value ([1]; IC50 of viability / IC50 of NO) was ~ 100 and the “TLR4 antagonist activity, times better than (+)-naltrexone” value ([1]; relative to (+)-naltrexone 1a, NO assay in BV-2 cells) was ~ 75 fold.

In the case of `CN1CC[C@]23c4c5ccc(O)c4O[C@H]2[C@@H](O)C=C[C@H]3[C@H]1C5` [morphine], the “analgesia to radiant heat compared to baseline” value [2] is reported as “produced significant analgesia to radiant heat”.
